The text below walks through data of patent publication EP0428268A2, “Pharmaceutical phenylpyridone derivatives” (SMITH KLINE & FRENCH LABORATORIES LIMITED, priority 1989, dated 1991).

SMILES strings stand for the structures. Like-named read-outs stand apart in the source and are kept apart here.

In assay [1] the test system is spontaneous colonic activity. Kind of assay: Inhibition of spontaneous colonic activity in vitro (isolated distal colon, organ bath). Set-up: species or system guinea-pigs. The following applies: concentration reducing spontaneous colonic activity by 50%, guinea-pig distal colon, Krebs solution at 37°C, read-out: IC₅₀. The source says:
Male albino guinea-pigs (300 - 400g) were killed by a blow to the back of the head and exsanguinated. A 2cm long segment of the proximal part of the hypogastric loop of the distal colon was rapidly dissected out and placed in oxygenated (95% O₂, 5% CO₂) modified warm Krebs solution. The tissue was cleaned out with Krebs and the adjoining mesentery discarded. Cotton was then tied to each end and the colon was attached to a tissue holder in an organ bath containing modified oxygenated Krebs solution at 37°C. The other end of the tissue was tied to an isometric transducer and placed under 1g tension. Force developed by the muscle was detected by the transducer, and recorded on a multitrace pen recorder. Spontaneous colonic activity, as assessed by the contraction distance over a five minute period, was subjected to computer analysis.
The tissues were allowed to settle at a resting tension of 1g for 1 hour, during which time they were washed at 15 minute intervals. Three samples of pre-dose activity were taken and averaged. The tissues were then dosed and two samples of post-dose activity were taken. The lowest value was used to calculate the percentage relaxation, and log dose response curves were constructed. The tissues were washed 10 minutes after dosing and left for 15 minutes to settle prior to the next control period. […]

In assay [2] the test system is ovalbumen. The experiment in a line: Anti-allergic activity (ovalbumen challenge in sensitised animals, tracheal inflation pressure). The assay is classed as in vivo, Duncan Hartley guinea-pigs. The following applies: dose of 17 µmol/kg i.v.; ovalbumen challenge 30 minutes following drug administration. The procedure: Male Duncan Hartley guinea-pigs (250-300 g) were sensitised to ovalbumen by i.p. injection of 2 ml of 50mg.ml⁻¹ i.p. and 0.2 ml s.c. Three weeks later they were anaesthetised with 60mg.kg⁻¹ sodium pentabarbitone. The trachea was cannulated and the animal respired at a rate of 40 breaths per minute and at an initial tracheal inflation pressure of 16 mmHg. Tracheal inflation pressure was measured by a transducer connected to a side arm of the respiration circuit. The carotid artery was cannulated for the measurement of blood pressure and the signal was used to trigger an instantaneous rate meter. A jugular vein was cannulated for the administration of drug and allergen. After surgery the animals were allowed to stabilise and the drug was administered i.v. as a bolus. Following this, ovalbumen 1mg.kg⁻¹ was injected i.v. as the antigen challenge either 2, 15 or 30 minutes following drug treatment and the peak bronchoconstrictor response recorded. For the control group ovalbumen only was given. One ovalbumen challenge per guinea-pig was used and n = 6 for each time point. The percentage increase in tracheal inflation pressure was calculated.

Regarding `CCCOc1cc(OC)ccc1-c1ccc(C(N)=O)c(=O)[nH]1` [Example 9(b), 1,2-Dihydro-6-(4-methoxy-2-propoxyphenyl)-2-oxo-3-pyridine carboxamide], in assay [1] (Cavia porcellus), the IC50 came to 3000 nM.

In the case of `CCCOc1ccc(C(N)=O)cc1-c1ccc(C(N)=O)c(=O)[nH]1` [Example 13, 3-(3-Carboxamido-1,2-dihydro-2-oxo-6-pyidinyl)-4-propoxybenzamide], the IC50 in assay [1] turned out to be 1100 nM. For `CC(C)COc1ccc(F)cc1-c1ccc(C(N)=O)c(=O)[nH]1` [Example 25, 6-(5-Fluoro-2-(2-methylpropoxy)phenyl)-1,2-dihydro-2-oxo-pyridine-3-carboxamide], the “inhibition of the control bronchoconstrictor response” value in assay [2] is listed as 40%.
